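96-well plates; 48 h exposure; 5 concentrations. Endpoints by linear interpolation between flanking doses. Not reached: highest tested concentration assigned. The concentration for 50% growth inhibition is given as GI50.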 Active and inactive are the calls of the source. Cut-off read from the data, not from the text of the source: active = GI50 up to about 1.1 µM and inactive = higher.
Experiments:
Assay in all cases: NCI anticancer screen, dose series, 48 h
BT-549 = system: BT-549
CAKI-1 = system: CAKI-1
HCT-116 = system: HCT-116
M14 = system: M14
OVCAR-5 = system: OVCAR-5
SF-539 = system: SF-539
SNB-19 = system: SNB-19
SNB-75 = system: SNB-75
UO-31 = system: UO-31

Measured: GI50

COc1cccc2c1[C@H](OC)[C@]13O[C@@]1(C2=O)[C@H](O)[C@H](C)[C@@](O)(C(=O)[C@@H]1O[C@H]1C)[C@@H]3O
active: BT-549 289 nM | CAKI-1 273 nM | HCT-116 318 nM | M14 221 nM | OVCAR-5 297 nM | SF-539 271 nM | SNB-19 286 nM | SNB-75 233 nM | UO-31 249 nM

— ChEMBL document CHEMBL1201862, “PubChem BioAssay data set” (2004)
